Laboratory results reported in PMC7054317, “Mammalian ALKBH1 serves as an N^6-mA demethylase of unpairing DNA” (Cell Research, 2020).

Legend:
ALKBH1_1–359 (mouse) = target: T1, ALKBH1_1–359 (mouse) (Mus musculus, UniProt P0CB42); assay: isothermal titration calorimetry; format: binding
T1 construct: gene Alkbh1; C-terminally truncated, residues 1-359, His-tag removed with PreScission protease, E. coli BL21(DE3); residues 20-358 modelled in the crystal
T1 sequence (P0CB42 1-359): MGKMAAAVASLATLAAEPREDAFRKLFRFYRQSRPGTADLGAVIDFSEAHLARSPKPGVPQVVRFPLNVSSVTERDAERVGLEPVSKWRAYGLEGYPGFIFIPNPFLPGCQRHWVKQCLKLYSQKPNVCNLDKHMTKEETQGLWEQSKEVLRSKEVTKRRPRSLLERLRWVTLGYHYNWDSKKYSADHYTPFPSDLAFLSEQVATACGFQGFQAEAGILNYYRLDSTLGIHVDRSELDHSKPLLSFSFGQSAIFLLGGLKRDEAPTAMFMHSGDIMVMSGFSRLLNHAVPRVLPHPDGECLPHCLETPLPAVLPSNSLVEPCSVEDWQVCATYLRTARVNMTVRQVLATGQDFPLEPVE

[1] = target: T2, ALKBH1 in full length (mouse) (Mus musculus, UniProt P0CB42); assay: isothermal titration calorimetry; format: binding
T2 construct: full length, residues 1-389, N-terminal His-tag retained, E. coli BL21(DE3), modified pRSFDuet-1
T2 sequence (P0CB42 1-389): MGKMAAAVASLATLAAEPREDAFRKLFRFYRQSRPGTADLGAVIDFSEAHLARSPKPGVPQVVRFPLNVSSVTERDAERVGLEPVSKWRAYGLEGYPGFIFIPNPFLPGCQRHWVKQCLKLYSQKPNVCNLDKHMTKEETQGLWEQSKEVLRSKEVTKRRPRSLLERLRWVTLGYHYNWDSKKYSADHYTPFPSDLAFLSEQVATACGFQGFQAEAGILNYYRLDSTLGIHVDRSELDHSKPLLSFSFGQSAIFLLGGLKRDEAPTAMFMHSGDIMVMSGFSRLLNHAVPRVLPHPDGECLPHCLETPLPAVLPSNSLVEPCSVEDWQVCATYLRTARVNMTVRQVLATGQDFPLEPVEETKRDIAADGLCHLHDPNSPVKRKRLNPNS

O=C(O)CNC(=O)C(=O)O [NOG]
Kd (ALKBH1_1–359 (mouse)): 2500 nM
Kd [1]: 1800 nM
